The molecules below were run on AR / CBP ternary complex (assay: Ternary complex formation assay (sandwich ELISA, AR capture / CBP detection) in VCaP cell lysates). Conditions: 1.5 hours treatment, sandwich ELISA (AR capture, CBP or p300 detection).
Type: cell-based
Outline: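 VCaP cells (50K/well, 5% charcoal-stripped FBS, ≥3 days) treated with bifunctional compound for 1.5 h, then lysed 30 min at 4 °C. AR captured on anti-AR (AR 441) plates; bound CBP or p300 detected by rabbit mAb plus HRP secondary. QuantaRed chemifluorescence read at ex 570/em 585, immediately and at 5 and 15 min.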

Compound	EC50 [nM]
CC(=O)N1CCc2c(c(-c3cccc4cc(-c5cnn(CC6CCN(c7ncc(C(=O)NC8C(C)(C)C(Oc9ccc(C#N)c(Cl)c9)C8(C)C)cn7)CC6)c5)ncc34)nn2C2CCOCC2)C1 (stereo not shown) [Compound 137, 2-[4-[[4-[8-(5-acetyl-1-tetrahydropyran-4-yl-6,7-dihydro-4H-pyrazolo[4,3-c]pyridin-3-yl)-3-isoquinolyl]pyrazol-1-yl]methyl]-1-piperidyl]-N-[3-(3-chloro-4-cyano-phenoxy)-2,2,4,4-tetramethyl-cyclobutyl]pyrimidine-5-carboxamide]	< 1
CC(=O)N1CCc2c(c(N3CCCc4cc(-c5cncs5)c(C(F)F)cc43)nn2C2CCN(CC3C(C)CN(c4ncc(C(=O)NC5C(C)(C)C(Oc6ccc(C#N)c(Cl)c6)C5(C)C)cn4)CC3C)CC2)C1 (stereo not shown) [Compound 422, 2-[4-[[4-[5-acetyl-3-[7-(difluoromethyl)-6-thiazol-5-yl-3,4-dihydro-2H-quinolin-1-yl]-6,7-dihydro-4H-pyrazolo[4,3-c]pyridin-1-yl]-1-piperidyl]methyl]-3,5-dimethyl-1-piperidyl]-N-[3-(3-chloro-4-cyano-phenoxy)-2,2,4,4-tetramethyl-cyclobutyl]pyrimidine-5-carboxamide]	< 1
CC(=O)N1CCc2c(c(N3CCCc4cc(-c5cnn(C)c5)c(C(F)F)cc43)nn2C2CCN(C(C)C3CCN(c4ncc(C(=O)NC5C(C)(C)C(Oc6ccc(C#N)c(Cl)c6)C5(C)C)cn4)CC3)CC2)C1 (stereo not shown) [Compound 113, 2-[4-[1-[4-[5-acetyl-3-[7-(difluoromethyl)-6-(1-methylpyrazol-4-yl)-3,4-dihydro-2H-quinolin-1-yl]-6,7-dihydro-4H-pyrazolo[4,3-c]pyridin-1-yl]-1-piperidyl]ethyl]-1-piperidyl]-N-[3-(3-chloro-4-cyano-phenoxy)-2,2,4,4-tetramethyl-cyclobutyl]pyrimidine-5-carboxamide]	< 1
CC(=O)N1CCc2c(c(-c3cccc4cc(-c5ccc(C(=O)N6CCC(OCc7ncc(C(=O)NC8C(C)(C)C(Oc9ccc(C#N)c(Cl)c9)C8(C)C)cn7)C6)nc5)ncc34)nn2C2CCOCC2)C1 (racemic) [Compound 131, N-[3-(3-chloro-4-cyano-phenoxy)-2,2,4,4-tetramethyl-cyclobutyl]-2-[[rac-(3S)-1-[5-[8-(5-acetyl-1-tetrahydropyran-4-yl-6,7-dihydro-4H-pyrazolo[4,3-c]pyridin-3-yl)-3-isoquinolyl]pyridine-2-carbonyl]pyrrolidin-3-yl]oxymethyl]pyrimidine-5-carboxamide]	< 1
COc1cc(OC2C(C)(C)C(NC(=O)c3ccc(N4CC(C)C(CN5CCC(n6nc(-c7cccc8cc(-c9cnn(C)c9)ncc78)c7c6CCN(C(C)=O)C7)CC5)C(C)C4)cc3)C2(C)C)ccc1C#N (stereo not shown) [Compound 441, 4-[4-[[4-[5-acetyl-3-[3-(1-methylpyrazol-4-yl)-8-isoquinolyl]-6,7-dihydro-4H-pyrazolo[4,3-c]pyridin-1-yl]-1-piperidyl]methyl]-3,5-dimethyl-1-piperidyl]-N-[3-(4-cyano-3-methoxy-phenoxy)-2,2,4,4-tetramethyl-cyclobutyl]benzamide]	< 1
CNC(=O)N1CCc2c(c(N3CCCc4cc(-c5cnn(C)c5)c(C(F)F)cc43)nn2C2CCN(CCOCc3ncc(C(=O)NC4C(C)(C)C(Oc5ccc(C#N)c(Cl)c5)C4(C)C)cn3)CC2)C1 (stereo not shown) [Compound 86, 1-[1-[2-[[5-[[3-(3-chloro-4-cyano-phenoxy)-2,2,4,4-tetramethyl-cyclobutyl]carbamoyl]pyrimidin-2-yl]methoxy]ethyl]-4-piperidyl]-3-[7-(difluoromethyl)-6-(1-methylpyrazol-4-yl)-3,4-dihydro-2H-quinolin-1-yl]-N-methyl-6,7-dihydro-4H-pyrazolo[4,3-c]pyridine-5-carboxamide]	> 100
CC(=O)N1CCc2c(c(N3CCCc4cc(-c5cnn(C)c5)c(C(F)F)cc43)nn2C2CCC3(CCCN(C4CN(c5ncc(C(=O)NC6C(C)(C)C(Oc7ccc(C#N)c(Cl)c7)C6(C)C)cn5)C4)C3)CC2)C1 (stereo not shown) [Compound 414, 2-[3-[9-[5-acetyl-3-[7-(difluoromethyl)-6-(1-methylpyrazol-4-yl)-3,4-dihydro-2H-quinolin-1-yl]-6,7-dihydro-4H-pyrazolo[4,3-c]pyridin-1-yl]-2-azaspiro[5.5]undecan-2-yl]azetidin-1-yl]-N-[3-(3-chloro-4-cyano-phenoxy)-2,2,4,4-tetramethyl-cyclobutyl]pyrimidine-5-carboxamide]	< 1
COc1cc(O[C@H]2C(C)(C)[C@H](NC(=O)c3ccc(N4CCN(C5CN(c6ccc(-c7cc8c(cc7C(F)F)N(c7nn(C9CCOCC9)c9c7CN(C(C)=O)CC9)CCC8)cn6)C5)CC4)cc3)C2(C)C)ccc1C#N [Compound 326, 4-(4-(1-(5-(1-(5-acetyl-1-(tetrahydro-2H-pyran-4-yl)-4,5,6,7-tetrahydro-1H-pyrazolo[4,3-c]pyridin-3-yl)-7-(difluoromethyl)-1,2,3,4-tetrahydroquinolin-6-yl)pyridin-2-yl)azetidin-3-yl)piperazin-1-yl)-N-((1r,3r)-3-(4-cyano-3-methoxyphenoxy)-2,2,4,4-tetramethylcyclobutyl)benzamide]	< 1
CC(=O)N1CCc2c(c(N3CCCc4cc(-c5cnn(C)c5)c(C(F)F)cc43)nn2C2CCC3(CC2)CCN(c2ncc(C(=O)NC4C(C)(C)C(Oc5ccc(C#N)c(Cl)c5)C4(C)C)cn2)C3)C1 (stereo not shown) [Compound 407, 2-[8-[5-acetyl-3-[7-(difluoromethyl)-6-(1-methylpyrazol-4-yl)-3,4-dihydro-2H-quinolin-1-yl]-6,7-dihydro-4H-pyrazolo[4,3-c]pyridin-1-yl]-2-azaspiro[4.5]decan-2-yl]-N-[3-(3-chloro-4-cyano-phenoxy)-2,2,4,4-tetramethyl-cyclobutyl]pyrimidine-5-carboxamide]	10 to 100
COc1cc(OC2C(C)(C)C(NC(=O)c3ccc(N4CCC(C5CCC(n6nc(N7CCCc8cc(-c9cnn(C)c9)c(C(F)F)cc87)c7c6CCN(C(C)=O)C7)CC5)CC4)cc3)C2(C)C)ccc1C#N (stereo not shown) [Compound 258, 4-[4-[4-[5-acetyl-3-[7-(difluoromethyl)-6-(1-methylpyrazol-4-yl)-3,4-dihydro-2H-quinolin-1-yl]-6,7-dihydro-4H-pyrazolo[4,3-c]pyridin-1-yl]cyclohexyl]-1-piperidyl]-N-[3-(4-cyano-3-methoxy-phenoxy)-2,2,4,4-tetramethyl-cyclobutyl]benzamide]	1 to 10
COc1cc(OC2C(C)(C)C(NC(=O)c3ccc(N4CC5(CCC(N6CCC(n7nc(N8CCCc9cc(-c%10cnn(C)c%10)c(C(F)F)cc98)c8c7CCN(C(C)=O)C8)CC6)C5)C4)cc3)C2(C)C)ccc1C#N (stereo not shown) [Compound 345, 4-[6-[4-[5-acetyl-3-[7-(difluoromethyl)-6-(1-methylpyrazol-4-yl)-3,4-dihydro-2H-quinolin-1-yl]-6,7-dihydro-4H-pyrazolo[4,3-c]pyridin-1-yl]-1-piperidyl]-2-azaspiro[3.4]octan-2-yl]-N-[3-(4-cyano-3-methoxy-phenoxy)-2,2,4,4-tetramethyl-cyclobutyl]benzamide]	< 1
CC(=O)N1CCc2c(c(Nc3ccc(-c4cnn(C)c4)cc3F)nn2C2CCN(CCC3CCN(c4ncc(C(=O)NC5C(C)(C)C(Oc6ccc(C#N)c(Cl)c6)C5(C)C)cn4)CC3)C2)C1 (stereo not shown) [Compound 6, 2-[4-[2-[3-[5-acetyl-3-[2-fluoro-4-(1-methylpyrazol-4-yl)anilino]-6,7-dihydro-4H-pyrazolo[4,3-c]pyridin-1-yl]pyrrolidin-1-yl]ethyl]-1-piperidyl]-N-[3-(3-chloro-4-cyano-phenoxy)-2,2,4,4-tetramethyl-cyclobutyl]pyrimidine-5-carboxamide]	> 100
CC(=O)N1CCc2c(c(N3CCCc4cc(-c5cnn(C)c5)c(C(F)F)cc43)nn2C2CC3(C2)CN(CC2CN(c4ccc(C(=O)NC5C(C)(C)C(Oc6ccc(C#N)c(Cl)c6)C5(C)C)nn4)C2)C3)C1 (stereo not shown) [Compound 212, 6-[3-[[6-[5-acetyl-3-[7-(difluoromethyl)-6-(1-methylpyrazol-4-yl)-3,4-dihydro-2H-quinolin-1-yl]-6,7-dihydro-4H-pyrazolo[4,3-c]pyridin-1-yl]-2-azaspiro [3.3]heptan-2-yl]methyl]azetidin-1-yl]-N-[3-(3-chloro-4-cyano-phenoxy)-2,2,4,4-tetramethyl-cyclobutyl]pyridazine-3-carboxamide]	10 to 100
CC(=O)N1CCc2c(c(-c3cccc4cc(-c5ccc(CC6CCN(c7ncc(C(=O)NC8C(C)(C)C(Oc9ccc(C#N)c(Cl)c9)C8(C)C)cn7)CC6)nc5)ncc34)nn2C2CCOCC2)C1 (stereo not shown) [Compound 140, 2-[4-[[5-[8-(5-acetyl-1-tetrahydropyran-4-yl-6,7-dihydro-4H-pyrazolo[4,3-c]pyridin-3-yl)-3-isoquinolyl]-2-pyridyl]methyl]-1-piperidyl]-N-[3-(3-chloro-4-cyano-phenoxy)-2,2,4,4-tetramethyl-cyclobutyl]pyrimidine-5-carboxamide]	< 1
CC(=O)N1CCc2c(c(N3CCCc4cc(-c5cnn(C)c5)c(C)cc43)nn2C2CCN(C(=O)CC3CCN(c4ncc(C(=O)NC5C(C)(C)C(Oc6ccc(C#N)c(Cl)c6)C5(C)C)cn4)CC3)CC2)C1 (stereo not shown) [Compound 176, 2-[4-[2-[4-[5-acetyl-3-[7-methyl-6-(1-methylpyrazol-4-yl)-3,4-dihydro-2H-quinolin-1-yl]-6,7-dihydro-4H-pyrazolo[4,3-c]pyridin-1-yl]-1-piperidyl]-2-oxo-ethyl]-1-piperidyl]-N-[3-(3-chloro-4-cyano-phenoxy)-2,2,4,4-tetramethyl-cyclobutyl]pyrimidine-5-carboxamide]	< 1
CC(=O)N1CCc2c(c(N3CCCc4cc(-c5cnco5)c(C(F)F)cc43)nn2C2CCN(CC3C(C)CN(c4ncc(C(=O)NC5C(C)(C)C(Oc6ccc(C#N)c(Cl)c6)C5(C)C)cn4)CC3C)CC2)C1 (stereo not shown) [Compound 424, 2-[4-[[4-[5-acetyl-3-[7-(difluoromethyl)-6-oxazol-5-yl-3,4-dihydro-2H-quinolin-1-yl]-6,7-dihydro-4H-pyrazolo[4,3-c]pyridin-1-yl]-1-piperidyl]methyl]-3,5-dimethyl-1-piperidyl]-N-[3-(3-chloro-4-cyano-phenoxy)-2,2,4,4-tetramethyl-cyclobutyl]pyrimidine-5-carboxamide]	< 1
